How the values were obtained:
Ca^2+/Calmodulin-Dep. II = experiment: Protein kinase activity in vitro; format: biochemical
Cdk1/Cyclin B = Cdk1/Cyclin B (Homo sapiens, UniProt P06493); experiment: Protein kinase activity in vitro; format: biochemical
Cdk2/Cyclin A = Cdk2/Cyclin A (Homo sapiens, UniProt P24941); experiment: Protein kinase activity in vitro; format: biochemical
Cdk5/p35 = Cdk5/p35 (Homo sapiens, UniProt Q00535); experiment: Protein kinase activity in vitro; format: biochemical
CHK1 = CHK1 (Homo sapiens, UniProt O14757); experiment: Protein kinase activity in vitro; format: biochemical
CHK2 = CHK2 (Homo sapiens, UniProt O96017); experiment: Protein kinase activity in vitro; format: biochemical
Sequence of CHK2 (O96017 whole entry, species assumed): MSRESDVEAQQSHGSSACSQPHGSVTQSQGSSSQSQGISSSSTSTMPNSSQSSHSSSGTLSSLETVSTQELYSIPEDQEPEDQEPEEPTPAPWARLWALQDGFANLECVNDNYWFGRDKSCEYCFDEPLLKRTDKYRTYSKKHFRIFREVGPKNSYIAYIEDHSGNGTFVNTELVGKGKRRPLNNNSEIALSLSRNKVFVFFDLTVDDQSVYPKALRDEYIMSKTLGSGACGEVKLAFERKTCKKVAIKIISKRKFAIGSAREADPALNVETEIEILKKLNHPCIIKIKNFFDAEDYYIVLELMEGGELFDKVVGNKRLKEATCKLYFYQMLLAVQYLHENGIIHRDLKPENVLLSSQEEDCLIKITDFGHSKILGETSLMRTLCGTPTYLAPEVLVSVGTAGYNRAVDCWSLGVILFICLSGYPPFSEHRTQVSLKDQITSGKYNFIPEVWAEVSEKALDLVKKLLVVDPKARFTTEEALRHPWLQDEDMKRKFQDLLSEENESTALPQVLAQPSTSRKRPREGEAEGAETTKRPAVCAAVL

EGF Receptor = EGF Receptor (Homo sapiens, UniProt P00533); experiment: Protein kinase activity in vitro; format: biochemical
ERK1 = ERK1 (Homo sapiens, UniProt P27361); experiment: Protein kinase activity in vitro; format: biochemical
GSK-3β = GSK-3β (Homo sapiens, UniProt P49841); experiment: Protein kinase activity in vitro; format: biochemical
HER2 receptor = HER2 receptor (Homo sapiens, UniProt P04626); experiment: Protein kinase activity in vitro; format: biochemical
IKK-1 = IKK-1 (Homo sapiens, UniProt O15111); experiment: Protein kinase activity in vitro; format: biochemical
IKK-2 = IKK-2 (Homo sapiens, UniProt O14920); experiment: Protein kinase activity in vitro; format: biochemical
Insulin receptor = Insulin receptor (Homo sapiens, UniProt P06213); experiment: Protein kinase activity in vitro; format: biochemical
JNK1α1 = JNK1α1 (Homo sapiens, UniProt P45983); experiment: Protein kinase activity in vitro; format: biochemical
JNK2α2 = JNK2α2 (Homo sapiens, UniProt P45984); experiment: Protein kinase activity in vitro; format: biochemical
Sequence of JNK2α2 (P45984 whole entry): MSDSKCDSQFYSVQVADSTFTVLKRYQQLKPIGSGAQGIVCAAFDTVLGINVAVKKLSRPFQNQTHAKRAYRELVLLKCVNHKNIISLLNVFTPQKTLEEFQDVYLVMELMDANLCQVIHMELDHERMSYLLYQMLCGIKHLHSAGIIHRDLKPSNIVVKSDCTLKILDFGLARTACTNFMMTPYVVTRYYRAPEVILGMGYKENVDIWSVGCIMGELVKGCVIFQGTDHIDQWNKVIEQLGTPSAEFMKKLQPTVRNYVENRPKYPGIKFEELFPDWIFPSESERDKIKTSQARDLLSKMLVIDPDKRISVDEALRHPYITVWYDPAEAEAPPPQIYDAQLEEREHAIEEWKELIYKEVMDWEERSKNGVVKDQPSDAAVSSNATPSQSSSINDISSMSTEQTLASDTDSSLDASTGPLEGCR

Lck = Lck (Homo sapiens, UniProt P06239); experiment: Protein kinase activity in vitro; format: biochemical
Lyn A = Lyn A (Homo sapiens, UniProt P07948); experiment: Protein kinase activity in vitro; format: biochemical; settings: 10 μM (two lines printed)
Sequence of Lyn A (P07948 whole entry, species assumed): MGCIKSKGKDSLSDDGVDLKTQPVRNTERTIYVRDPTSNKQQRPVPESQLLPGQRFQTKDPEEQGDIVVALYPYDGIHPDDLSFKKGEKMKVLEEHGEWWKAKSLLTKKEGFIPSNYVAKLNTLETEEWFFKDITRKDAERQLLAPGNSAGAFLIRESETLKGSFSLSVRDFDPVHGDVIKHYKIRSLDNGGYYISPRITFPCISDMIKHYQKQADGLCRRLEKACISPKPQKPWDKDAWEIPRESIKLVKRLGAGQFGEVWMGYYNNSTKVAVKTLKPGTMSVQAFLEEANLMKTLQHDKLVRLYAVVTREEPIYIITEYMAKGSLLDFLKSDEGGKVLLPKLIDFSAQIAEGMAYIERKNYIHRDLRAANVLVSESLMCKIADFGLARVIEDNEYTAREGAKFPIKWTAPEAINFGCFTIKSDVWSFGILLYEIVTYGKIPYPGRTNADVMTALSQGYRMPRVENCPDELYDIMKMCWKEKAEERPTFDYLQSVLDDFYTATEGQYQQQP

MEK1 = MEK1 (Homo sapiens, UniProt Q02750); experiment: Protein kinase activity in vitro; format: biochemical
Sequence of MEK1 (Q02750 whole entry, species assumed): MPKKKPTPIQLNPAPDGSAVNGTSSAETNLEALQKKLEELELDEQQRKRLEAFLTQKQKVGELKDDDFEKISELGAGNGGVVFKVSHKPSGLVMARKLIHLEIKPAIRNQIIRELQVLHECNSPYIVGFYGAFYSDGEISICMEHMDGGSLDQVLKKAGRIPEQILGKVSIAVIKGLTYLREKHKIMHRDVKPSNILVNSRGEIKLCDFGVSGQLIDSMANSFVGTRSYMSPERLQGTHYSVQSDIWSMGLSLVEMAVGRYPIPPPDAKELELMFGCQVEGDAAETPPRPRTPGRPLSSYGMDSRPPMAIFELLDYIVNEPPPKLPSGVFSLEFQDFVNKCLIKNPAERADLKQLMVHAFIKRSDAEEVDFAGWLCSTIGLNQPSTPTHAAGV

p38α = p38α (Homo sapiens, UniProt Q16539); experiment: Protein kinase activity in vitro; format: biochemical
Sequence of p38α (Q16539 whole entry): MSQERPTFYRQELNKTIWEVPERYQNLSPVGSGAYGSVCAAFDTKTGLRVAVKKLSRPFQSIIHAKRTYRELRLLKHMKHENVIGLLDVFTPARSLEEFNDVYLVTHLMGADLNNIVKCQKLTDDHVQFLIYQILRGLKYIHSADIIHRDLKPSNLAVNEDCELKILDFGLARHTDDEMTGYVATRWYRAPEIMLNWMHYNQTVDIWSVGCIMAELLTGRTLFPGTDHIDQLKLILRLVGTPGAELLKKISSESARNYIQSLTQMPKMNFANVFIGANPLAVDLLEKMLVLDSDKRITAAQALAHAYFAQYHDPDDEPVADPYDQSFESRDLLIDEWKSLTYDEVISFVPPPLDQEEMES

p38β = p38β (Homo sapiens, UniProt Q15759); experiment: Protein kinase activity in vitro; format: biochemical
p38δ = p38δ (Homo sapiens, UniProt O15264); experiment: Protein kinase activity in vitro; format: biochemical
p38γ = p38γ (Homo sapiens, UniProt P53778); experiment: Protein kinase activity in vitro; format: biochemical
Sequence of p38γ (P53778 whole entry): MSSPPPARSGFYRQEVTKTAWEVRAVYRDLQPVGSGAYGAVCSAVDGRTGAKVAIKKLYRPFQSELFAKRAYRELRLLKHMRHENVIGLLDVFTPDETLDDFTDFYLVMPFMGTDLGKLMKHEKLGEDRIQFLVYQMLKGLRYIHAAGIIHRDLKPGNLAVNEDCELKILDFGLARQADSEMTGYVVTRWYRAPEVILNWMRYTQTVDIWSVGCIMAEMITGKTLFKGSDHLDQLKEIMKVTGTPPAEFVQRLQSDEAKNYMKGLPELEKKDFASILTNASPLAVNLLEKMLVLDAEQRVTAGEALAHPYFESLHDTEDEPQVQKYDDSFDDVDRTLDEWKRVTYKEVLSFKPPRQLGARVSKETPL

p70^56k = p70^56k (Homo sapiens, UniProt P23443); experiment: Protein kinase activity in vitro; format: biochemical
PDK1 = PDK1 (Homo sapiens, UniProt O15530); experiment: Protein kinase activity in vitro; format: biochemical
PKA, non-selective = experiment: Protein kinase activity in vitro; format: biochemical
PKBα/Akt1 = PKBα/Akt1 (Homo sapiens, UniProt P31749); experiment: Protein kinase activity in vitro; format: biochemical
PKCα = PKCα (Homo sapiens, UniProt P17252); experiment: Protein kinase activity in vitro; format: biochemical
PKCβ1 = PKCβ1 (Homo sapiens, UniProt P05771); experiment: Protein kinase activity in vitro; format: biochemical
PKCβ2 = PKCβ2 (Homo sapiens, UniProt P05771); experiment: Protein kinase activity in vitro; format: biochemical
PKCδ = PKCδ (Homo sapiens, UniProt Q05655); experiment: Protein kinase activity in vitro; format: biochemical
PKCε = PKCε (Homo sapiens, UniProt Q02156); experiment: Protein kinase activity in vitro; format: biochemical
PKCγ = PKCγ (Homo sapiens, UniProt P05129); experiment: Protein kinase activity in vitro; format: biochemical
PKCη = PKCη (Homo sapiens, UniProt P24723); experiment: Protein kinase activity in vitro; format: biochemical
Sequence of PKCη (P24723 whole entry): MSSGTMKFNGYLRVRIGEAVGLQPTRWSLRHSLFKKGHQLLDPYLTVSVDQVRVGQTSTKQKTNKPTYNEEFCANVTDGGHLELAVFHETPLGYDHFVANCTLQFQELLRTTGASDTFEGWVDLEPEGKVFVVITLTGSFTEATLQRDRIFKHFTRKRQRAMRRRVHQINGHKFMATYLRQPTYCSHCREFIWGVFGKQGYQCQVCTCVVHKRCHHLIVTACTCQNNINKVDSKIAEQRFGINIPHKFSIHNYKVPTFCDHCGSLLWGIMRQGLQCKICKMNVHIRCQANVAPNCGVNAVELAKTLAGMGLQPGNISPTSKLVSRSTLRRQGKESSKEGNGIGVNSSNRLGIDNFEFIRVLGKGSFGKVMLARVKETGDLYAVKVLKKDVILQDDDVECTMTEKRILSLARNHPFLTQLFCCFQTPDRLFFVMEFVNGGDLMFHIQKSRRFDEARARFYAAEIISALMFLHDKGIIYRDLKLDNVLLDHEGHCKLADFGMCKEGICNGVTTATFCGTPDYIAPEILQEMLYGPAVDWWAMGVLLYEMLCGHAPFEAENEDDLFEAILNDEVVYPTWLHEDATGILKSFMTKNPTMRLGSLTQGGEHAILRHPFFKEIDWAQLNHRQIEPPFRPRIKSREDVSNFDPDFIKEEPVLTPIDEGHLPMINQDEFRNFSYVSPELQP

PKCμ = PKCμ (Homo sapiens, UniProt Q15139); experiment: Protein kinase activity in vitro; format: biochemical
Sequence of PKCμ (Q15139 whole entry): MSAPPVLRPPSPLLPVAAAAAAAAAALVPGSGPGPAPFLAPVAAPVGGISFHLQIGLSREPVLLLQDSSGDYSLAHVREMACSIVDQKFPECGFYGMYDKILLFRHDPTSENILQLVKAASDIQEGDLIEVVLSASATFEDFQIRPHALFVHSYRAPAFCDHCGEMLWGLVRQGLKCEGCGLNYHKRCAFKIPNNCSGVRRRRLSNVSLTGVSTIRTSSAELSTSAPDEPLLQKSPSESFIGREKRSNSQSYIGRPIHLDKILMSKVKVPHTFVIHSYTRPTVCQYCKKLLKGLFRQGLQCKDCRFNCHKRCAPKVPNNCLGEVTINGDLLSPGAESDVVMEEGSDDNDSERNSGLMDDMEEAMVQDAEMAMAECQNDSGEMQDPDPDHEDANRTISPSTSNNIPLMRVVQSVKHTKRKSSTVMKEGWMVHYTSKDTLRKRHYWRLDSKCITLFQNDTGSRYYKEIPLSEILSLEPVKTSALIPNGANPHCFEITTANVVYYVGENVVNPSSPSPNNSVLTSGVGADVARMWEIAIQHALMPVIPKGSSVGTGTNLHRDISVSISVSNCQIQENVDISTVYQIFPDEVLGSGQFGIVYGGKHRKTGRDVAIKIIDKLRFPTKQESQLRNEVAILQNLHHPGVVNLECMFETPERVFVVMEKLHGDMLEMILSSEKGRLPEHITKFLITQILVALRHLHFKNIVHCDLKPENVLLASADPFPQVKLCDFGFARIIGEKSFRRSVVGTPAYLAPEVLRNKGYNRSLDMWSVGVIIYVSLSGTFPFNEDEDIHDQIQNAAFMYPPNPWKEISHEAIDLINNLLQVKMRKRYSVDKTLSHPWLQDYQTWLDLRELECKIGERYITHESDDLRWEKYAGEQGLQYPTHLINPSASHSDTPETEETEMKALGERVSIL

PKCζ = PKCζ (Homo sapiens, UniProt Q05513); experiment: Protein kinase activity in vitro; format: biochemical
pp60^C-SRC = pp60^C-SRC (Homo sapiens, UniProt P12931); experiment: Protein kinase activity in vitro; format: biochemical
ALK5 = ALK5 (Homo sapiens, UniProt P36897, T204D); experiment: biochemical
Procedure: The His-tagged, constitutively active ALK5 (T204D) and Smad3 full protein were expressed in insect cells using the Invitrogen BacNBlue baculovirus expression system. Expressed proteins were purified with Qiagen Ni-NTA resin column. The purified smad3 protein 200 ng was mixed with 100 μL of 0.1 M sodium bicarbonate coating buffer and coated into Flash-Plates by pipetting. Plates were covered and incubated at 4° C. for 16 hours. Then the plates were washed 3 times with 200 μL of coating buffer and allowed to block in 1% BSA in PBS at room temperature for 1 hour. The purified ALK5 protein 100 ng was mixed with 100 μL of reaction buffer containing 20 mM Tris-HCl (pH 7.4), 5 mM MgCl2, 1 mM CaCl2, 1 mM DTT, 1 μM ATP and 2 μCi ?-^32p-ATP, and 1 μL of each test compound of formula (I) prepared in 100% DMSO solution at different concentrations. The assay was then initiated with the addition of ALK5 reaction mixture into Smad3-coated Flash-Plates, followed by incubation at 30° C. for 3 hours. After incubation, the assay buffer was removed and washed 3 times with 200 μL of 10 mM sodium pyrophosphate solution. Then, the Flash-Plates were air-dried and counted on a Packard TopCount.

With Cc1cccc(-c2[nH]c(Cc3cccc(C(N)=O)c3)nc2-c2ccc3nccnc3c2)n1 [Example 41, 3-((5-(6-methylpyridin-2-yl)-4-(quinoxalin-6-yl)-1(3)H-imidazol-2-yl)methyl)benzamide] the “% inhibition at 10 μM” value (Ca^2+/Calmodulin-Dep. II) was 1%, the inhibition at 10 µM (Cdk1/Cyclin B) was -3% and the inhibition at 10 µM (Cdk2/Cyclin A) was 6%. For the same molecule, the inhibition at 10 µM (Cdk5/p35) was -2%, the inhibition at 10 µM (CHK1) was 10% and the inhibition at 10 µM (CHK2) was 18%. For the same molecule, the inhibition at 10 µM (EGF Receptor) was 2%, the inhibition at 10 µM (ERK1) was 51% and the inhibition at 10 µM (GSK-3β) was 21%. For the same molecule, the inhibition at 10 µM (HER2 receptor) was 11%, the inhibition at 10 µM (IKK-1) was 2% and the inhibition at 10 µM (IKK-2) was 1%. It also gave an inhibition at 10 µM (Insulin receptor) of 15%, an inhibition at 10 µM (JNK1α1) of 11% and an inhibition at 1 µM (JNK2α2; 1 μM) of 40%. The inhibition at 10 µM (JNK2α2; 10 μM) was 81%, the inhibition at 10 µM (Lck) was 17% and the inhibition at 10 µM (Lyn A) was 37%. The “% inhibition at 10 μM” value (Lyn A; 10 µM) was 42%, the inhibition at 1 µM (MEK1; 1 μM) was 4% and the inhibition at 10 µM (MEK1; 10 μM) was 66%. It also gave an inhibition at 1 µM (p38α; 1 μM) of 25%, an inhibition at 10 µM (p38α; 10 μM) of 76% and an inhibition at 10 µM (p38β) of 48%. It also gave an inhibition at 10 µM (p38δ) of -19%, an inhibition at 10 µM (p38γ) of 15% and an inhibition at 10 µM (p70^56k) of -3%. The inhibition at 10 µM (PDK1) was 3%, the “% inhibition at 10 μM” value (PKA, non-selective) was 27% and the inhibition at 10 µM (PKBα/Akt1) was 17%. For the same molecule, the inhibition at 10 µM (PKCα) was -6%, the inhibition at 10 µM (PKCβ1) was 10% and the inhibition at 10 µM (PKCβ2) was -2%. The inhibition at 10 µM (PKCδ) was 3%, the inhibition at 10 µM (PKCε) was 1% and the inhibition at 10 µM (PKCγ) was 3%. It also gave an inhibition at 10 µM (PKCη) of -6%, an inhibition at 1 µM (PKCμ; 1 μM) of 31% and an inhibition at 10 µM (PKCμ; 10 μM) of 64%. For the same molecule, the inhibition at 10 µM (PKCζ) was -9%, the inhibition at 10 µM (pp60^C-SRC) was -3% and the IC50 (ALK5) was 5.3 nM.
